What follows are molecules tested against T1, human PTH1 receptor (Homo sapiens, UniProt Q03431) (assay: In vitro cAMP signal activity in HKRK-B7 cells (LLC-PK1 cells overexpressing the human PTH1 receptor)). Conditions: 0.1 µM.
T1 sequence (Q03431 27-593): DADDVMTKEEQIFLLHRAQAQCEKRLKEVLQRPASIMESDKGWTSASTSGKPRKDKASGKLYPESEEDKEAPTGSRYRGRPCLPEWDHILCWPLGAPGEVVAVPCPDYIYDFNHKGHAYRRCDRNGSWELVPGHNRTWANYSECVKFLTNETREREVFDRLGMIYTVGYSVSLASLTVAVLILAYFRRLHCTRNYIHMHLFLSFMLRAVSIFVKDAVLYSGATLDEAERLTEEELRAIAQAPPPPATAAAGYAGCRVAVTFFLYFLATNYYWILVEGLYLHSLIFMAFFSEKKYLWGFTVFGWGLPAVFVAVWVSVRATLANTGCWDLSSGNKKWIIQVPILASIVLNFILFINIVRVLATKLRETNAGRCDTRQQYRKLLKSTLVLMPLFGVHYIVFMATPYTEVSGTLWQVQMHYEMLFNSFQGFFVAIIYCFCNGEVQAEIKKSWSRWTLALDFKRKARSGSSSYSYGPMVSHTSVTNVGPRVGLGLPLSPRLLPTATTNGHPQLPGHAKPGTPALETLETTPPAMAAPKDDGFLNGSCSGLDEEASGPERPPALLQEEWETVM
Type: cell-based

| Structure (SMILES) | cAMP production activity (%) |
| --- | --- |
| Cc1cc(N(C)C(N)=O)cc(C)c1CCS(=O)(=O)N1CCC2(CC1)N=C(C1CCC([Si](C)(C)C)CC1)NC2=O (stereo not drawn) [Compound 1137, 1-(3,5-Dimethyl-4-{2-[4-oxo-2-(4-trimethylsilanyl-cyclohexyl)-1,3,8-triaza-spiro[4.5]dec-1-ene-8-sulfonyl]-ethyl}-phenyl)-1-methyl-urea] | 82% |
| Cc1cc(N(C)C(N)=O)cc(C)c1CC[S@TB4](=O)(=O)N1CCC2(CC1)N=C(c1ccc([Si](C)(C)C)cc1)NC2=O [Compound 1139, 1-(3,5-dimethyl-4-{2-[4-oxo-2-(4-trimethylsilanyl-phenyl)-1,3,8-triaza-spiro[4.5]dec-1-ene-8-sulfonyl]-ethyl}-phenyl)-1-methyl-urea] | 86% |

Same assay, conditions: HKRK-B7 cells; compound at 1×10^−3 M; cAMP produced as percentage of that produced by hPTH(1-34) at 100 nM

| cAMP production activity (%) | Structure (SMILES) |
| --- | --- |
| 118% | Cc1cc(N(C)C(N)=O)cc(C)c1/C=C/[S@TB3](=O)(=O)N1CCC2(CC1)N=C(CCCCCCC/C=C/c1ccccc1)NC2=O [Compound 1121, 1-(3,5-dimethyl-4-{(E)-2-[4-oxo-2-((E)-9-phenyl-non-8-enyl)-1,3,8-triaza-spiro[4.5]dec-1-ene-8-sulfonyl]-vinyl}-phenyl)-1-methyl-urea] |
| 150% | CCCSCCCCCC1=NC2(CCN([S@TB17](=O)(=O)/C=C/c3c(C)cc(N(C)C(N)=O)cc3C)CC2)C(=O)N1 [Compound 1122, 1-(3,5-dimethyl-4-{(E)-2-[4-oxo-2-(5-propylsulfanyl-pentyl)-1,3,8-triaza-spiro[4.5]dec-1-ene-8-sulfonyl]-vinyl}-phenyl)-1-methyl-urea] |
| 122% | COCCCCCCCC1=NC2(CCN([S@TB18](=O)(=O)/C=C/c3c(C)cc(N(C)C(N)=O)cc3C)CC2)C(=O)N1 [Compound 1123, 1-(4-{(E)-2-[2-(7-methoxy-heptyl)-4-oxo-1,3,8-triaza-spiro[4.5]dec-1-ene-8-sulfonyl]-vinyl}-3,5-dimethyl-phenyl)-1-methyl-urea] |
| 119% | CCCOCCCCCC1=NC2(CCN([S@TB18](=O)(=O)/C=C/c3c(C)cc(N(C)C(N)=O)cc3C)CC2)C(=O)N1 [Compound 1124, 1-(3,5-dimethyl-4-{(E)-2-[4-oxo-2-(5-propoxy-pentyl)-1,3,8-triaza-spiro[4.5]dec-1-ene-8-sulfonyl]-vinyl}-phenyl)-1-methyl-urea] |
| 93% | Cc1cc(N(C)C(N)=O)cc(C)c1/C=C/[S@TB4](=O)(=O)N1CCC2(CC1)N=C(CCCCCCCCCCC(F)F)NC2=O [Compound 1125, 1-(4-{(E)-2-[2-(11,11-difluoro-undecyl)-4-oxo-1,3,8-triaza-spiro[4.5]dec-1-ene-8-sulfonyl]-vinyl}-3,5-dimethyl-phenyl)-1-methyl-urea] |
| 106% | CCCCCCC(CCC)CCC1=NC2(CCN([S@TB18](=O)(=O)/C=C/c3c(C)cc(N(C)C(N)=O)cc3C)CC2)C(=O)N1 (stereo not drawn) [Compound 1126, 1-(3,5-dimethyl-4-{(E)-2-[4-oxo-2-(3-propyl-nonyl)-1,3,8-triaza-spiro[4.5]dec-1-ene-8-sulfonyl]-vinyl}-phenyl)-1-methyl-urea] |
| 91% | CCCc1cc2ccc(C3=NC4(CCN([S@TB18](=O)(=O)/C=C/c5c(C)cc(N(C)C(N)=O)cc5C)CC4)C(=O)N3)cc2o1 [Compound 1127, 1-(3,5-dimethyl-4-{(E)-2-[4-oxo-2-(2-propyl-benzofuran-6-yl)-1,3,8-triaza-spiro[4.5]dec-1-ene-8-sulfonyl]-vinyl}-phenyl)-1-methyl-urea] |
| 119% | CCCCCc1ccc(C2=NC3(CCN([S@TB18](=O)(=O)/C=C/c4c(C)cc(N(C)C(N)=O)cc4C)CC3)C(=O)N2)cc1OC [Compound 1128, 1-(4-{(E)-2-[2-(3-methoxy-4-pentyl-phenyl)-4-oxo-1,3,8-triaza-spiro[4.5]dec-1-ene-8-sulfonyl]-vinyl}-3,5-dimethyl-phenyl)-1-methyl-urea] |
| 102% | [2H]C([2H])([2H])C([2H])([2H])C1=CC[C@H](C2=NC3(CCN([S@TB18](=O)(=O)/C=C/c4c(C)cc(N(C)C(N)=O)cc4C)CC3)C(=O)N2)CC1 [Compound 1129, 1-(4-{(E)-2-[2-(4-[1,1,2,2,2-^2H5]ethyl-cyclohex-3-enyl)-4-oxo-1,3,8-triaza-spiro[4.5]dec-1-ene-8-sulfonyl]-vinyl}-3,5-dimethyl-phenyl)-1-methyl-urea] |
| 96% | Cc1cc(N(C)C(N)=O)cc(C)c1/C=C/S(=O)(=O)N1CCC2(CC1)N=C(CCCCCCCCCCCC(=O)O)NC2=O [Compound 1131, 12-(8-{(E)-2-[2,6-Dimethyl-4-(1-methyl-ureido)-phenyl]-ethenesulfonyl}-4-oxo-1,3,8-triaza-spiro[4.5]dec-1-en-2-yl)-dodecanoic acid] |
| 80% | CCOC(=O)CCCCCCCCCCCC1=NC2(CCN(S(=O)(=O)/C=C/c3c(C)cc(N(C)C(N)=O)cc3C)CC2)C(=O)N1 [Compound 1132, 12-(8-{(E)-2-[2,6-dimethyl-4-(1-methyl-ureido)-phenyl]-ethenesulfonyl}-4-oxo-1,3,8-triaza-spiro[4.5]dec-1-en-2-yl)-dodecanoic acid ethyl ester] |
| 113% | Cc1cc(N(C)C(N)=O)cc(C)c1/C=C/S(=O)(=O)N1CCC2(CC1)N=C(CCCCCc1ccccc1)NC2=O.O=C(O)C(F)(F)F [Compound 1133, 1-(3,5-Dimethyl-4-{(E)-2-[4-oxo-2-(5-phenyl-pentyl)-1,3,8-triaza-spiro[4.5]dec-1-ene-8-sulfonyl]-vinyl}-phenyl)-1-methyl-urea trifluoroacetate] |
| 50% | Cc1cc(N(C)C(N)=O)cc(C)c1/C=C\S(=O)(=O)N1CCC2(CC1)N=C(CCCCCc1ccccc1)NC2=O.O=C(O)C(F)(F)F [Compound 1134, 1-(3,5-dimethyl-4-{(Z)-2-[4-oxo-2-(5-phenyl-pentyl)-1,3,8-triaza-spiro[4.5]dec-1-ene-8-sulfonyl]-vinyl}-phenyl)-1-methyl-urea trifluoroacetate] |
| 84% | Cc1cc(N(C)C(N)=O)cc(C)c1CCS(=O)(=O)N1CCC2(CC1)N=C(c1cccc(OCCCC(F)(F)C(F)(F)F)c1)NC2=O [Compound 1135, 1-[3,5-Dimethyl-4-(2-{4-oxo-2-[3-(4,4,5,5,5-pentafluoro-pentyloxy)-phenyl]-1,3,8-triaza-spiro[4.5]dec-1-ene-8-sulfonyl}-ethyl)-phenyl]-1-methyl-urea] |
| 112% | CCCc1cccc(-c2cccc(C3=NC4(CCN(S(=O)(=O)CCc5c(C)cc(N(C)C(N)=O)cc5C)CC4)C(=O)N3)c2)c1 [Compound 1136, 1-(3,5-Dimethyl-4-{2-[4-oxo-2-(3′-propyl-biphenyl-3-yl)-1,3,8-triaza-spiro[4.5]dec-1-ene-8-sulfonyl]-ethyl}-phenyl)-1-methyl-urea] |
| 77% | Cc1cc(N(C)C(N)=O)cc(C)c1CC[S@TB3](=O)(=O)N1CCC2(CC1)N=C(C1CC(C(F)(F)F)CC(C(F)(F)F)C1)NC2=O [Compound 1138, 1-(4-{2-[2-((1R,3R,5S)-3,5-bis-trifluoromethyl-cyclohexyl)-4-oxo-1,3,8-triaza-spiro[4.5]dec-1-ene-8-sulfonyl]-ethyl}-3,5-dimethyl-phenyl)-1-methyl-urea] |
| 55% | CCCCCCCCCCCCCC1=NC2(CCN([S@TB18](=O)(=O)CCc3c(C)cc(N(C)C(N)=O)cc3C)CC2)C(=O)N1 [Compound 1140, 1-{3,5-dimethyl-4-[2-(4-oxo-2-tridecyl-1,3,8-triaza-spiro[4.5]dec-1-ene-8-sulfonyl)-ethyl]-phenyl}-1-methyl-urea] |
| 83% | CCCCCCCCCCCC1=NC2(CCN([S@TB17](=O)(=O)CCc3c(C)cc(N(C)C(N)=O)cc3C)CC2)C(=O)N1 [Compound 1141, 1-{3,5-dimethyl-4-[2-(4-oxo-2-undecyl-1,3,8-triaza-spiro[4.5]dec-1-ene-8-sulfonyl)-ethyl]-phenyl}-1-methyl-urea] |
| 68% | CCCCCCCCC1=NC2(CCN([S@TB17](=O)(=O)CCc3c(C)cc(N(C)C(N)=O)cc3C)CC2)C(=O)N1 [Compound 1142, 1-{3,5-dimethyl-4-[2-(2-octyl-4-oxo-1,3,8-triaza-spiro[4.5]dec-1-ene-8-sulfonyl)-ethyl]-phenyl}-1-methyl-urea] |
| 78% | CCCCCC[C@@H]1CCC[C@H](C2=NC3(CCN(S(=O)(=O)CCc4c(C)cc(N(C)C(N)=O)cc4C)CC3)C(=O)N2)C1 [Compound 1143, 1-(4-{2-[2-((1S,3R)-3-Hexyl-cyclohexyl)-4-oxo-1,3,8-triaza-spiro[4.5]dec-1-ene-8-sulfonyl]-ethyl}-3,5-dimethyl-phenyl)-1-methyl-urea] |
| 124% | Cc1cc(N(C)C(N)=O)cc(C)c1CC[S@TB3](=O)(=O)N1CCC2(CC1)N=C(c1cccc(CCC(C)C)c1)NC2=O [Compound 1144, 1-[3,5-dimethyl-4-(2-{2-[3-(3-methyl-butyl)-phenyl]-4-oxo-1,3,8-triaza-spiro[4.5]dec-1-ene-8-sulfonyl}-ethyl)-phenyl]-1-methyl-urea] |
| 102% | CCCC[C@@H]1CCC[C@H](C2=NC3(CCN(S(=O)(=O)CCc4c(C)cc(N(C)C(N)=O)cc4C)CC3)C(=O)N2)C1 [Compound 1145, 1-(4-{2-[2-((1S,3R)-3-butyl-cyclohexyl)-4-oxo-1,3,8-triaza-spiro[4.5]dec-1-ene-8-sulfonyl]-ethyl}-3,5-dimethyl-phenyl)-1-methyl-urea] |

From patent US9169254B2, “Spiroimidazolone derivative” (Chugai Seiyaku Kabushiki Kaisha, priority 2009, dated 2015)
